The source of these data is patent publication US9511059B2, “Antiviral compounds” (priority 2013, dated 2016).

The structures appear in SMILES notation.

What all share (experiment): microbe, parasite or virus in culture
The subject of assay [1] is Pseudotyped HCV GT1a particles (HCVpp). The format is cell-based, Hepatitis C virus GT1a H77 strain. The conditions noted are these: Hepatitis C virus, 72 h, read-out: HCVpp GT-1a (EC50, μM).
Assay [2] has as its system pseudotyped VSV G particles (VSVpp). The format is cell-based. The conditions noted are these: Vesicular stomatitis virus, 72 h, read-out: VSVpp (EC50, μM).
For assay [3], the system named is Pseudotyped HCV GT1b particles (HCVpp). The format is cell-based, Hepatitis C virus GT1b Con1 strain. The note with it: Hepatitis C virus, 72 h, read-out: HCVpp GT-1b (EC50, μM).

For the molecule `Nc1n[nH]c(Nc2cc(F)c(Sc3ccccc3)c(C(F)(F)F)c2)n1` [Compound 1, N^5-(3-Fluoro-4-phenylsulfanyl-5-trifluoromethylphenyl)-1H-[1,2,4]-triazole-3,5-diamine], the half-maximal effective concentration (EC50) in assay [1] is 0.31 µM; in assay [2], 13.2 µM.
On to `Nc1nc(Nc2cc(Cl)c(Sc3ccccc3C(F)(F)F)c(Cl)c2)n[nH]1` [Compound 10, N*3*-[3,5-Dichloro-4-(2-trifluoromethyl-phenylsulfanyl)-phenyl]-1H-[1,2,4]triazole-3,5-diamine], for which the EC50 was determined as 0.263 µM in assay [1] and 7.7 µM in assay [2].
Turning to `N#Cc1ccc([S+]([O-])c2c(Cl)cc(Nc3n[nH]c(N)n3)cc2Cl)cc1` (stereo not shown) [Compound 13, 4-[4-(5-Amino-1H-[1,2,4]triazol-3-ylamino)-2,6-dichloro-benzenesulfinyl]-benzonitrile], the figures for the EC50 in assay [1] and in assay [2] were 0.674 µM and 10 µM, respectively.
For `COc1ccc(S(=O)(=O)c2c(Cl)cc(Nc3n[nH]c(N)n3)cc2Cl)cc1` [Compound 18, N*3*-[3,5-Dichloro-4-(4-methoxy-benzenesulfonyl)-phenyl]-1H-[1,2,4]triazole-3,5-diamine], the values for the 50% effective concentration (EC50) in assay [1] and in assay [2] were 0.126 µM and 0.1 µM, respectively.
As for `Nc1nc(Nc2cc(Cl)c(S(=O)(=O)c3ccccc3)c(Cl)c2)n[nH]1` [Compound 6, N*3*-(4-Benzenesulfonyl-3,5-dichloro-phenyl)-1H-[1,2,4]triazole-3,5-diamine], the figures for the EC50 in assay [1] and in assay [2] were 0.139 µM and 34 µM, respectively.
The like results for `CS(=O)(=O)c1ccc(Oc2c(Cl)cc(Nc3n[nH]c(N)n3)cc2C(F)(F)F)cc1` [Compound 20, N*3*-[3-Chloro-4-(4-methanesulfonyl-phenoxy)-5-trifluoromethyl-phenyl]-1H-[1,2,4]triazole-3,5-diamine] were, in that order, 0.232 µM and 10 µM.
Turning to `CS(=O)(=O)c1ccc(Oc2c(Cl)cc(Nc3n[nH]c(N)n3)cc2Cl)cc1` [Compound 19, N*3*-[3,5-Dichloro-4-(4-methanesulfonyl-phenoxy)-phenyl]-1H-[1,2,4]triazole-3,5-diamine], the results for the EC50 in assay [1], in assay [3] and in assay [2] were 0.019 µM, 0.008 µM and 20.2 µM, respectively.
On to `Nc1nc(Nc2ccc(Nc3ccccc3)c(Cl)c2)n[nH]1` [Compound 2, N*3*-(3-Chloro-4-phenylamino-phenyl)-1H-[1,2,4]triazole-3,5-diamine], for which the concentration giving a half-maximal response (EC50) in assay [1] is 2.44 µM; in assay [3] it was 0.393 µM; in assay [2], 86 µM.
With `Nc1nc(Nc2cc(Cl)c(Sc3cccc(C(F)(F)F)c3)c(Cl)c2)n[nH]1` [Compound 9, N3-(3,5-dichloro-4-(3-(trifluoromethyl)phenylthio)phenyl)-1H-1,2,4-triazole-3,5-diamine], the 50% effective concentration (EC50) in assay [1] was 0.15 µM; in assay [2], 3 µM.
In the case of `Nc1nc(Nc2ccc(Sc3ccccc3)c(Cl)c2)n[nH]1` [Compound 22, N3-(3-chloro-4-(phenylthio)phenyl)-1H-1,2,4-triazole-3,5-diamine], the EC50 came out at 1.65 µM in assay [1], 0.229 µM in assay [3] and 14.3 µM in assay [2].
Consider `N#Cc1ccc(S(=O)(=O)c2c(Cl)cc(Nc3n[nH]c(N)n3)cc2Cl)cc1` [Compound 14, 4-[4-(5-Amino-1H-[1,2,4]triazol-3-ylamino)-2,6-dichloro-benzenesulfonyl]-benzonitrile], for which the EC50 was 0.366 µM in assay [1] and 10 µM in assay [2].
In the case of `Nc1nc(Nc2cc(Cl)c([S+]([O-])c3ccc(C(F)(F)F)cc3)c(Cl)c2)n[nH]1` (stereo not shown) [Compound 8, N3-(3,5-dichloro-4-(4-(trifluoromethyl)phenylsulfinyl)phenyl)-1H-1,2,4-triazole-3,5-diamine], the values for the 50% effective concentration (EC50) in assay [1], in assay [3] and in assay [2] were 0.114 µM, 0.079 µM and 10 µM, respectively.
With `N#Cc1ccc(Sc2c(Cl)cc(Nc3n[nH]c(N)n3)cc2Cl)cc1` [Compound 12, 4-[4-(5-Amino-1H-[1,2,4]triazol-3-ylamino)-2,6-dichloro-phenylsulfanyl]-benzonitrile], the EC50 turned out to be 0.077 µM in assay [1] and 3.4 µM in assay [2].
As to `Nc1nc(Nc2ccc(Oc3ccccc3)c(Cl)c2)n[nH]1` [Compound 3, N*3*-(3-Chloro-4-phenoxy-phenyl)-1H-[1,2,4]triazole-3,5-diamine], the figures for the EC50 in assay [1], in assay [3] and in assay [2] were 2.77 µM, 0.329 µM and 35.5 µM, respectively.
Take `COC(=O)c1ccc(Sc2c(Cl)cc(Nc3n[nH]c(N)n3)cc2C(F)(F)F)cc1` [Compound 15, 4-[4-(5-Amino-1H-[1,2,4]triazol-3-ylamino)-2-chloro-6-trifluoromethyl-phenylsulfanyl]-benzoic acid methyl ester]: the figures for the half-maximal effective concentration (EC50) in assay [1] and in assay [2] were 0.133 µM and 49.8 µM, respectively.
As for `Nc1nc(Nc2ccc(S(=O)(=O)c3ccccc3)c(Cl)c2)n[nH]1` [Compound 23, N3-(3-chloro-4-(phenylsulfonyl)phenyl)-1H-1,2,4-triazole-3,5-diamine], the EC50 stood at 4.62 µM in assay [1], 0.517 µM in assay [3] and 40.1 µM in assay [2].
Turning to `Nc1nc(Nc2cc(Cl)c(Sc3ccc(C(F)(F)F)cc3)c(Cl)c2)n[nH]1` [Compound 7, N3-(3,5-dichloro-4-(4-(trifluoromethyl)phenylthio)phenyl)-1H-1,2,4-triazole-3,5-diamine], the figures for the EC50 in assay [3] and in assay [2] were 0.009 µM and 100 µM, respectively.
For `Nc1nc(Nc2cc(Cl)c([S+]([O-])c3cccc(C(F)(F)F)c3)c(Cl)c2)n[nH]1` (stereo not shown) [Compound 11, N^3-[3,5-Dichloro-4-(3-trifluoromethyl-benzenesulfinyl)-phenyl]-1H-[1,2,4]triazole-3,5-diamine], the EC50 in assay [1] was found to be 0.61 µM; in assay [2], 10 µM.
On to `CN(c1ccc(Sc2ccccc2)c(Cl)c1)c1n[nH]c(N)n1` [Compound 24, N3-(3-chloro-4-(phenylthio)phenyl)-N3-methyl-1H-1,2,4-triazole-3,5-diamine], for which the EC50 in assay [3] amounted to 42.1 µM; in assay [2], 100 µM.
`Nc1nc(Nc2cc(Cl)c([S+]([O-])c3ccccc3)c(Cl)c2)n[nH]1` (stereo not shown) [Compound 5, N*3*-(4-Benzenesulfinyl-3,5-dichloro-phenyl)-1H-[1,2,4]triazole-3,5-diamine]: the concentration for a half-maximal effect (EC50) stood at 0.293 µM in assay [1] and 25.3 µM in assay [2].
Turning to `Nc1nc(Nc2cc(Cl)c(Oc3ccccn3)c(Cl)c2)n[nH]1` [Compound 26, N*3*-[3,5-Dichloro-4-(pyridin-2-yloxy)-phenyl]-1H-[1,2,4]triazole-3,5-diamine], the results for the EC50 in assay [1] and in assay [2] were 1.88 µM and 43.5 µM, respectively.
Consider `Nc1nc(Nc2cc(Cl)cc(Oc3ccccc3)c2)n[nH]1` [Compound 25, N*3*-(3-Chloro-5-phenoxy-phenyl)-1H-[1,2,4]triazole-3,5-diamine], for which the results for the 50% effective concentration (EC50) in assay [3] and in assay [2] were 1.9 µM and 100 µM, respectively.
With `COc1ccc(Sc2c(Cl)cc(Nc3n[nH]c(N)n3)cc2C(F)(F)F)cc1` [Compound 17, N*3*-[3-Chloro-4-(4-methoxy-phenylsulfanyl)-5-trifluoromethyl-phenyl]-1H-[1,2,4]triazole-3,5-diamine], the values for the concentration giving a half-maximal response (EC50) in assay [1] and in assay [2] were 1.04 µM and 34.9 µM, respectively.
The like results for `Nc1nc(Nc2cc(Cl)cc(OCc3ccccc3)c2)n[nH]1` [Compound 21, N*5*-(3-Benzyloxy-5-chloro-phenyl)-1H-[1,2,4]triazole-3,5-diamine] were, in that order, 1.67 µM and 39.2 µM.
Turning to `COc1ccc(Sc2c(Cl)cc(Nc3n[nH]c(N)n3)cc2Cl)cc1` [Compound 16, N*3*-[3,5-Dichloro-4-(4-methoxy-phenylsulfanyl)-phenyl]-1H-[1,2,4]triazole-3,5-diamine], the EC50 in assay [1] stood at 1.02 µM; in assay [2] it was 40.2 µM.
Turning to `Nc1nc(Nc2cc(Cl)c(Sc3ccccc3)c(Cl)c2)n[nH]1` [Compound 4, N*3*-(3,5-Dichloro-4-phenylsulfanyl-phenyl)-1H-[1,2,4]triazole-3,5-diamine], the results for the concentration giving a half-maximal response (EC50) in assay [1] and in assay [2] were 0.076 µM and 3.3 µM, respectively.

One may read the EC50 as the concentration that produces a half-maximal response.
